The numbers were not newly measured in patent US4652627A, “Calcitonin analogs with C-terminal D-amino acid substituents” (priority 1985, dated 1987), which cites them from elsewhere.

For the series the following is noted: relative to human calcitonin = 100%.

Positions of bridges follow the written chain, without caps; N, C: chain ends. No end group written: not given here.

For “deletion of the entire prolinamide moiety: human calcitonin with the entire C-terminal prolinamide moiety deleted (CGNLSTCMLGTYTQDFNKFHTFPQTAIGVGA; ends and bridges not checked; cysteine pairing not given here; UniProt P01258 85-115, looked up, fragment)”, the activity is given as 0.12%.
Regarding “human calcitonin (CGNLSTCMLGTYTQDFNKFHTFPQTAIGVGAP-NH2; disulfide 1-7; ends not checked; UniProt P01258 85-116, looked up) [natural 32 amino acid calcitonin of human origin with C-terminal prolinamide]”, the activity is listed as 100%.
